Data reported in a melting point compilation (Tetko et al.; mined from patent text by program, amines drawn as free bases though some values may be those of a salt).

Row | melting point [°C] | Compound
1 | 127 to 159 | COc1ccc(Br)cc1-c1cc(-c2ccc(Br)cc2)on1
2 | 105 | CCC1SC(=O)N(Cc2ccc(N)cc2)N=C1c1ccc(OC)c(OC)c1 (stereo not given)
3 | 200 to 203 | COc1ccc(NC(=O)c2ccc(F)c(F)c2)cc1NC(=S)Nc1ccc(C(=O)O)cc1
4 | 72 to 74 | CC(=O)Nc1cc(F)c(OCC(F)F)cc1[N+](=O)[O-]
5 | 48.5 to 49 | O=C(OCc1ccccc1)C(C(=O)OCc1ccccc1)n1cccc1
6 | 93 to 94 | CC1CCCN1c1nccc(Oc2ccc(NC(=O)c3cc(F)cc(N4CCCCC4)c3)c3ccccc23)n1 (stereo not given)
7 | 121 to 123 | CSc1cc(C)nc(SC)c1NC(=O)CCCCSc1nc2ccccc2s1
8 | 68 to 69 | C=CCN(C(=O)c1ccco1)c1c(C)cccc1C
9 | 228 | CCN1CCCC1CNC(=O)c1ccc(O)c(Cl)c1 (stereo not given)
10 | 235 | O=C(O)C1=CSC2CC(=O)N12 (stereo not given)
11 | 133 to 134 | Cc1cc(C)cc(COC(=O)C(Cc2c[nH]c3ccccc23)NC(=O)c2ccccc2)c1 (stereo not given)
12 | 174 to 176 | CC(C(=O)O)C(=O)NCCC=C1c2ccccc2CCc2ccccc21 (stereo not given)
13 | 141 to 142 | COCOCC(=O)c1cnc(NC(=O)C(C)(C)C)cn1
14 | 159 to 160 | CC(=O)NC[C@H]1CN(c2ccc(N3CCC(=CC#N)CC3)c(F)c2)C(=O)O1
15 | 151 to 158 | Cc1nc(N)nc(N)c1CCCc1ccccc1C(F)(F)F
16 | 147 to 148 | CC(=O)Nc1nc(=O)n(C(=O)c2ccc(C)cc2)cc1F
17 | 123 to 124 | O=c1cc(-c2cccnc2)oc2ccccc12
18 | 155 | Clc1ccc(-c2cccs2)nn1
19 | 157 | O=C(O)CCNC(=O)c1cccc(NC(=O)c2csc(NC(=O)NCc3ccccc3)n2)c1
20 | 128 to 130 | CCS(=O)CCn1nc(-c2cccc(Cl)c2Cl)c(=O)c2cccc(OC)c21 (stereo not given)
21 | 89 to 91 | NC(CCO)C(=O)Nc1ccc(Cl)cc1Cl (stereo not given)

More lines, now with the values behind:

Row | Compound | melting point [°C]
22 | O=C1Nc2ccccc2C1CCCCN1CCN(c2ccc(Cl)cc2)CC1 (stereo not given) | 136 to 137
23 | CCCCCCCCCCCCCOc1ccc(C(C)=O)o1 | 61 to 62
24 | CSCCN1CSC(=Cc2cc(C(C)(C)C)c(O)c(C(C)(C)C)c2)C1=O | 166 to 168
25 | Cc1cncc(C)c1-c1c(C)cc(C=Cc2cc(C(C)(C)C)c(O)c(C(C)(C)C)c2)cc1C | 234 to 235
26 | CON(c1ccc(C#N)cc1Cl)S(=O)(=O)c1ccc(C)cc1 | 145 to 147
27 | CCCc1c2c(cc3c1OC(O)(C(=O)OCC)CC3=O)CCCC2 (stereo not given) | 126 to 128
28 | NS(=O)(=O)c1cc(C(=O)O)cc(NC/C=C/CBr)c1Oc1ccccc1 | 191 to 194
29 | Cc1nc2n(c(=O)c1CCN1CCC(=C(c3ccccc3)c3ccccc3)CC1)CCCS2 | 176
30 | CN(C(=O)c1ccccn1)c1cc(F)cc(F)c1 | 102 to 104
31 | Oc1cccc2c1CC(NC1CC1)CO2 (stereo not given) | 147 to 148
32 | COCCCCOc1ccc(OCc2ccccc2)cc1 | 60 to 61
33 | CCN1CCN(c2ccc(Br)nc2)CC1 | 30 to 31
34 | CCOC(=O)Nc1csc2cc(OCc3ccccc3)ccc12 | 129 to 130
35 | CCCCN(Cc1ccc(-c2ccccc2S(=O)(=O)NC(=O)c2ccccc2Cl)cc1)C(=O)Oc1ccccc1C(F)(F)F | > 150
36 | CN1C(=O)C2(COc3cc4c(cc32)OCCO4)c2c(-c3cn[nH]c3)cccc21 (stereo not given) | 250 to 251
37 | CCOc1ccc2[nH]c(=O)n(-c3ccccc3Cl)c2c1 | 97
38 | O=C1OC(CNC(=S)C(F)F)CN1c1ccc(N2CCOCC2)c(F)c1 (stereo not given) | 125 to 127
39 | O=C(Cn1sc2ccccc2c1=O)N1CCN(C(=O)Oc2ccc([N+](=O)[O-])cc2)CC1 | 114 to 118
40 | CCCC(=O)OC1=C(c2ccc(OC)cc2)S(=O)c2ccccc2-n2cccc21 (stereo not given) | 113 to 115
